Measurements reported in US20050142581A1, “Microrna as ligands and target molecules” (priority 2003, published 2005).
Oligonucleotides are written 5' to 3', each unit as a sugar letter and its base; * is a phosphorothioate linkage, no mark a phosphodiester; rarer units and linkages stand in square brackets, end groups in braces. Plain capitals give the bases only. e = 2'-O-(2-methoxyethyl) (MOE); [5mC] = 5-methylcytosine; d = 2'-deoxy (DNA)

The substances below were run on human CD40 mRNA (assay: Inhibition of CD40 mRNA levels by oligonucleotides (real-time RT-PCR)). Conditions: 2'-MOE gapmers, 18 nucleotides, phosphorothioate throughout; averaged from three experiments.
Format: cell-based
Parameters: concentration or dose not given beside the values
Method in brief: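 Cells at ~80% confluency were transfected with oligonucleotide at 150 nM final using Lipofectin 3.75 μg/ml for 4 h and harvested 16 h after treatment. Poly(A)+ mRNA was taken for TaqMan real-time RT-PCR of CD40, and percent inhibition was derived from a standard curve of untreated control mRNA.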
In the case of “19222 (antisense eG*eT*eG*eG*dG*dT*dG*dG*dT*dT*dC*dT*dG*dG*eA*eT*eG*eG) [compound 19222]”, the “% Inhibition (Inhibition of CD40 mRNA Levels by Chimeric Phosphorothioate Oligonucleotides)” value (“% Inhibition” below) is reported as 57.79%. “19223 (antisense eG*e[5mC]*eA*eG*dT*dG*dG*dG*dT*dG*dG*dT*dT*dC*eT*eG*eG*eA) [compound 19223]” was tested, and the “% Inhibition” value was 73.70%. “19224 (antisense e[5mC]*eA*e[5mC]*eA*dA*dA*dG*dA*dA*dC*dA*dG*dC*dA*e[5mC]*eT*eG*eA) [compound 19224]” was tested, and the “% Inhibition” value was 40.25%. In the case of “19225 (antisense e[5mC]*eT*eG*eG*dC*dA*dC*dA*dA*dA*dG*dA*dA*dC*eA*eG*e[5mC]*eA) [compound 19225]”, the “% Inhibition” value is reported as 60.11%. With “19226 (antisense eT*e[5mC]*e[5mC]*eT*dG*dG*dC*dT*dG*dG*dC*dA*dC*dA*eA*eA*eG*eA) [compound 19226]” the “% Inhibition” value was 10.18%. With “19227 (antisense e[5mC]*eT*eG*eT*dC*dC*dT*dG*dG*dC*dT*dG*dG*dC*eA*e[5mC]*eA*eA) [compound 19227]” the “% Inhibition” value was 24.37%. “19228 (antisense e[5mC]*eT*e[5mC]*eA*dC*dC*dA*dG*dT*dT*dT*dC*dT*dG*eT*e[5mC]*e[5mC]*eT) [compound 19228]” was tested, and the “% Inhibition” value was 22.30%. In the case of “19229 (antisense eT*e[5mC]*eA*e[5mC]*dT*dC*dA*dC*dC*dA*dG*dT*dT*dT*e[5mC]*eT*eG*eT) [compound 19229]”, the “% Inhibition” value is reported as 40.64%. With “19230 (antisense eG*eT*eG*e[5mC]*dA*dG*dT*dC*dA*dC*dT*dC*dA*dC*e[5mC]*eA*eG*eT) [compound 19230]” the “% Inhibition” value was 82.04%. “19231 (antisense eA*e[5mC]*eT*e[5mC]*dT*dG*dT*dG*dC*dA*dG*dT*dC*dA*e[5mC]*eT*e[5mC]*eA) [compound 19231]” was tested, and the “% Inhibition” value was 37.59%. “19232 (antisense e[5mC]*eA*eG*eT*dG*dA*dA*dC*dT*dC*dT*dG*dT*dG*e[5mC]*eA*eG*eT) [compound 19232]” was tested, and the “% Inhibition” value was 40.26%. With “19233 (antisense eA*eT*eT*e[5mC]*dC*dG*dT*dT*dT*dC*dA*dG*dT*dG*eA*eA*e[5mC]*eT) [compound 19233]” the “% Inhibition” value was 56.03%. “19234 (antisense eG*eA*eA*eG*dG*dC*dA*dT*dT*dC*dC*dG*dT*dT*eT*e[5mC]*eA*eG) [compound 19234]” was tested, and the “% Inhibition” value was 32.21%. For “19235 (antisense eT*eT*e[5mC]*eA*dC*dC*dG*dC*dA*dA*dG*dG*dA*dA*eG*eG*e[5mC]*eA) [compound 19235]”, the “% Inhibition” value was 61.03%. With “19236 (antisense e[5mC]*eT*e[5mC]*eT*dG*dT*dT*dC*dC*dA*dG*dG*dT*dG*eT*e[5mC]*eT*eA) [compound 19236]” the “% Inhibition” value was 62.19%. With “19237 (antisense e[5mC]*eT*eG*eG*dT*dG*dG*dC*dA*dG*dT*dG*dT*dG*eT*e[5mC]*eT*e[5mC]) [compound 19237]” the “% Inhibition” value was 70.32%. For “19238 (antisense eT*eG*eG*eG*dG*dT*dC*dG*dC*dA*dG*dT*dA*dT*eT*eT*eG*eT) [compound 19238]”, the “% Inhibition” value was 0.00%. With “19239 (antisense eG*eG*eT*eT*dG*dG*dG*dG*dT*dC*dG*dC*dA*dG*eT*eA*eT*eT) [compound 19239]” the “% Inhibition” value was 19.40%. In the case of “19240 (antisense e[5mC]*eT*eA*eG*dG*dT*dT*dG*dG*dG*dG*dT*dC*dG*e[5mC]*eA*eG*eT) [compound 19240]”, the “% Inhibition” value is reported as 36.32%. In the case of “19241 (antisense eG*eG*eT*eG*dC*dC*dC*dT*dT*dC*dT*dG*dC*dT*eG*eG*eA*e[5mC]) [compound 19241]”, the “% Inhibition” value is reported as 78.91%. In the case of “19242 (antisense e[5mC]*eT*eG*eA*dG*dG*dT*dG*dC*dC*dC*dT*dT*dC*eT*eG*e[5mC]*eT) [compound 19242]”, the “% Inhibition” value is reported as 69.84%. In the case of “19243 (antisense eG*eT*eG*eT*dC*dT*dG*dT*dT*dT*dC*dT*dG*dA*eG*eG*eT*eG) [compound 19243]”, the “% Inhibition” value is reported as 63.32%. For “19244 (antisense eT*eG*eG*eT*dG*dT*dC*dT*dG*dT*dT*dT*dC*dT*eG*eA*eG*eG) [compound 19244]”, the “% Inhibition” value was 42.83%. In the case of “19245 (antisense eA*e[5mC]*eA*eG*dG*dT*dG*dC*dA*dG*dA*dT*dG*dG*eT*eG*eT*e[5mC]) [compound 19245]”, the “% Inhibition” value is reported as 73.31%. For “19246 (antisense eT*eT*e[5mC]*eA*dC*dA*dG*dG*dT*dG*dC*dA*dG*dA*eT*eG*eG*eT) [compound 19246]”, the “% Inhibition” value was 47.72%. With “19247 (antisense eG*eT*eG*e[5mC]*dC*dA*dG*dC*dC*dT*dT*dC*dT*dT*e[5mC]*eA*e[5mC]*eA) [compound 19247]” the “% Inhibition” value was 61.32%. In the case of “19248 (antisense eT*eA*e[5mC]*eA*dG*dT*dG*dC*dC*dA*dG*dC*dC*dT*eT*e[5mC]*eT*eT) [compound 19248]”, the “% Inhibition” value is reported as 46.82%. With “19249 (antisense eG*eG*eA*e[5mC]*dA*dC*dA*dG*dC*dT*dC*dT*dC*dA*e[5mC]*eA*eG*eG) [compound 19249]” the “% Inhibition” value was 0.00%. “19250 (antisense eT*eG*e[5mC]*eA*dG*dG*dA*dC*dA*dC*dA*dG*dC*dT*e[5mC]*eT*e[5mC]*eA) [compound 19250]” was tested, and the “% Inhibition” value was 52.05%. With “19251 (antisense eG*eA*eG*e[5mC]*dG*dG*dT*dG*dC*dA*dG*dG*dA*dC*eA*e[5mC]*eA*eG) [compound 19251]” the “% Inhibition” value was 50.15%. In the case of “19252 (antisense eA*eA*eG*e[5mC]*dC*dG*dG*dG*dC*dG*dA*dG*dC*dA*eT*eG*eA*eG) [compound 19252]”, the “% Inhibition” value is reported as 32.36%. In the case of “19253 (antisense eA*eA*eT*e[5mC]*dT*dG*dC*dT*dT*dG*dA*dC*dC*dC*e[5mC]*eA*eA*eA) [compound 19253]”, the “% Inhibition” value is reported as 0.00%. In the case of “19254 (antisense eG*eA*eA*eA*dC*dC*dC*dC*dT*dG*dT*dA*dG*dC*eA*eA*eT*e[5mC]) [compound 19254]”, the “% Inhibition” value is reported as 0.00%. With “19255 (antisense eG*eT*eA*eT*dC*dA*dG*dA*dA*dA*dC*dC*dC*dC*eT*eG*eT*eA) [compound 19255]” the “% Inhibition” value was 36.13%. With “19256 (antisense eG*e[5mC]*eT*e[5mC]*dG*dC*dA*dG*dA*dT*dG*dG*dT*dA*eT*e[5mC]*eA*eG) [compound 19256]” the “% Inhibition” value was 64.65%. “19257 (antisense eG*e[5mC]*eA*eG*dG*dG*dC*dT*dC*dG*dC*dA*dG*dA*eT*eG*eG*eT) [compound 19257]” was tested, and the “% Inhibition” value was 74.95%. In the case of “19258 (antisense eT*eG*eG*eG*dC*dA*dG*dG*dG*dC*dT*dC*dG*dC*eA*eG*eA*eT) [compound 19258]”, the “% Inhibition” value is reported as 0.00%. In the case of “19259 (antisense eG*eA*e[5mC]*eT*dG*dG*dG*dC*dA*dG*dG*dG*dC*dT*e[5mC]*eG*e[5mC]*eA) [compound 19259]”, the “% Inhibition” value is reported as 82.00%. For “19260 (antisense e[5mC]*eA*eT*eT*dG*dG*dA*dG*dA*dA*dG*dA*dA*dG*e[5mC]*e[5mC]*eG*eA) [compound 19260]”, the “% Inhibition” value was 41.31%. With “19261 (eG*eA*eT*eG*dA*dC*dA*dC*dA*dT*dT*dG*dG*dA*eG*eA*eA*eG; antisense) [compound 19261]” the “% Inhibition” value was 13.81%. In the case of “19262 (eG*e[5mC]*eA*eG*dA*dT*dG*dA*dC*dA*dC*dA*dT*dT*eG*eG*eA*eG; antisense) [compound 19262]”, the “% Inhibition” value is reported as 78.48%. With “19263 (eT*e[5mC]*eG*eA*dA*dA*dG*dC*dA*dG*dA*dT*dG*dA*e[5mC]*eA*e[5mC]*eA; antisense) [compound 19263]” the “% Inhibition” value was 59.28%. “19264 (eG*eT*e[5mC]*e[5mC]*dA*dA*dG*dG*dG*dT*dG*dA*dC*dA*eT*eT*eT*eT; antisense) [compound 19264]” was tested, and the “% Inhibition” value was 70.99%. For “19265 (e[5mC]*eA*e[5mC]*eA*dG*dC*dT*dT*dG*dT*dC*dC*dA*dA*eG*eG*eG*eT; antisense) [compound 19265]”, the “% Inhibition” value was 0.00%. For “19266 (eT*eT*eG*eG*dT*dC*dT*dC*dA*dC*dA*dG*dC*dT*eT*eG*eT*e[5mC]; antisense) [compound 19266]”, the “% Inhibition” value was 45.92%. For “19267 (e[5mC]*eA*eG*eG*dT*dC*dT*dT*dT*dG*dG*dT*dC*dT*e[5mC]*eA*e[5mC]*eA; antisense) [compound 19267]”, the “% Inhibition” value was 63.95%. In the case of “19268 (e[5mC]*eT*eG*eT*dT*dG*dC*dA*dC*dA*dA*dC*dC*dA*eG*eG*eT*e[5mC]; antisense) [compound 19268]”, the “% Inhibition” value is reported as 82.32%. With “19269 (eG*eT*eT*eT*dG*dT*dG*dC*dC*dT*dG*dC*dC*dT*eG*eT*eT*eG; antisense) [compound 19269]” the “% Inhibition” value was 70.10%.
